Experimental data as given in US11242337B2, “Compounds useful for treating gastrointestinal tract disorders” (Ardelyx, Inc., priority 2017, dated 2022).

How the values were obtained:
[1] = target: T1, NHE3 (Homo sapiens, UniProt P48764); assay: Cell-based assay of NHE-3 activity (pre-incubation inhibition), human; settings: human Preincubation
T1 construct: expressed in transfected cells
T1 sequence (P48764 26-834): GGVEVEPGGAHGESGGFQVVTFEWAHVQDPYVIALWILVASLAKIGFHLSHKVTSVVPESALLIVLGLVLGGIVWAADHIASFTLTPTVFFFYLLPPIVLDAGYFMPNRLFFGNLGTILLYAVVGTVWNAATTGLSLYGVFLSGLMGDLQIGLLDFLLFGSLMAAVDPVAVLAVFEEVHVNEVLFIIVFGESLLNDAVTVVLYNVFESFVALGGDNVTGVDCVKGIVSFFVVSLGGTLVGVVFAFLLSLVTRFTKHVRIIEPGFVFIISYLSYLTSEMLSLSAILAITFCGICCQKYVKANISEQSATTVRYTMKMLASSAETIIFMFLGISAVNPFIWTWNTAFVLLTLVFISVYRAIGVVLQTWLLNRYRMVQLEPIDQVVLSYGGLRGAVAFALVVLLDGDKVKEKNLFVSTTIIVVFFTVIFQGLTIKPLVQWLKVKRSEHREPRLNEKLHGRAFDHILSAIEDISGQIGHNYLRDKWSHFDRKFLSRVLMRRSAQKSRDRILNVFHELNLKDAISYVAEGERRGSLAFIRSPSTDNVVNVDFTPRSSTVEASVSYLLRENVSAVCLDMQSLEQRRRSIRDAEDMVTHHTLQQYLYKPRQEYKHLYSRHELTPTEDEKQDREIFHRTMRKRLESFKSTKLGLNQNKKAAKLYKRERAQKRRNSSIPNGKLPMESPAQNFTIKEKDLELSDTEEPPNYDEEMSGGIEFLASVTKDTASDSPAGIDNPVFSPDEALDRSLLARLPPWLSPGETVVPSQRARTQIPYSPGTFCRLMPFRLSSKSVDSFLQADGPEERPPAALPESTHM
T1 sequence (Q99653 2-195 partner limits assumed): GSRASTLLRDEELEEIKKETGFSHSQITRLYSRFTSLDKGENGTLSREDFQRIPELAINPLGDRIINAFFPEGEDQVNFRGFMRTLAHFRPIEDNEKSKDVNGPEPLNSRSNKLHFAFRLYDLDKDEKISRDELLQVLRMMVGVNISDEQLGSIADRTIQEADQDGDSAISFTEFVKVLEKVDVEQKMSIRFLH
In short: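 PS120 fibroblasts stably expressing human NHE3 and NHERF2, loaded 30 min at 37 °C with 5 μM BCECF-AM in NH4Cl buffer, then acidified 10 min at room temperature in Na+-free buffer with 0–30 μM compound. Initial rate of BCECF fluorescence ratio change (FLIPR) per minute taken as Na+/H+ activity.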

[2] = target: T1, NHE3; assay: Cell-based assay of NHE-3 activity (persistent inhibition), human; settings: human Persistence, 60 min incubation then washout
In short: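 PS120 fibroblasts expressing human NHE3 with NHERF2 exposed to 0-30 μM compound for 60 min at RT, then washed out; cells acid-loaded by NH4Cl prepulse with BCECF-AM and Na+-free buffer. Na+-driven pH recovery started 10 min post-washout; initial rate of BCECF ratio change (FLIPR) taken as activity.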

Structure (SMILES)	% inhibition [1]	pIC50 ([1]; 0-30 μM test compound)	% inhibition [2]	pIC50 [2]	IC50 [2]	IC50 ([1]; 0-30 μM test compound)
N#Cc1cc(Cl)cc2c1C[C@H](N1CCNCC1)[C@H]2Oc1ccc(S(=O)(=O)N[C@@H]2CCN(CCOCCNC(=O)NCCCCNC(=O)NCCOCCN3CC[C@@H](NS(=O)(=O)c4ccc(O[C@H]5c6cc(Cl)cc(C#N)c6C[C@@H]5N5CCNCC5)cc4)C3)C2)cc1 [Example 108, 4-([(1S,2S)-6-Chloro-4-cyano-2-(piperazin-1-yl)-2,3-dihydro-1H-inden-1-yl]oxy)-N—[(R)-1-(20-[(R)-3-([4-([(1S2S)-6-chloro-4-cyano-2-(piperazin-1-yl)-2,3-dihydro-1H-inden-1-yl]oxy)phenyl]sulfonamido)pyrrolidin-1-yl]-7,14-dioxo-3,18-dioxa-6,8,13,15-tetraazaicosyl)pyrrolidin-3-yl]benzenesulfonamide; tetra(trifluoroacetate)]	C (>70%)	C (NHE3 pIC50 > 7)	C (>70%)	C (NHE3 pIC50 > 7)		
CN(C)[C@@H]1CCCN([C@H]2Cc3c(C#N)cc(Cl)cc3[C@@H]2Oc2ccc(S(=O)(=O)NCCOCCOCCNC(=O)NCCCCNC(=O)NCCOCCOCCNS(=O)(=O)c3ccc(O[C@H]4c5cc(Cl)cc(C#N)c5C[C@@H]4N4CCC[C@@H](N(C)C)C4)cc3)cc2)C1 [Example 121, 4-([(1S,2S)-6-Chloro-4-cyano-2-[(R)-3-(dimethylamino)piperidin-1-yl]-2,3-dihydro-1H-inden-1-yl]oxy)-N-[26-([4-([(1S,2S)-6-chloro-4-cyano-2-[(R)-3-(dimethylamino)piperidin-1-yl]-2,3-dihydro-1H-inden-1-yl]oxy)phenyl]sulfonamido)-10,17-dioxo-3,6,21,24-tetraoxa-9,11,16,18-tetraazahexacosyl]benzenesulfonamide]	B (40-70%)	C (NHE3 pIC50 > 7)	A (NHE3 < 40%)	C (NHE3 pIC50 > 7)		
N#Cc1cc(Cl)cc2c1C[C@H](N1CCNCC1)[C@H]2Oc1ccc(S(=O)(=O)NC(=O)CCCNC(=O)NCCCCNC(=O)NCCCC(=O)NS(=O)(=O)c2ccc(O[C@H]3c4cc(Cl)cc(C#N)c4C[C@@H]3N3CCNCC3)cc2)cc1 [Example 124, N^1,N^18-Bis([4-([(1S,2S)-6-chloro-4-cyano-2-(piperazin-1-yl)-2,3-dihydro-1H-inden-1-yl]oxy)phenyl]sulfonyl)-6,13-dioxo-5,7,12,14-tetraazaoctadecanediamide]	C (>70%)	C (NHE3 pIC50 > 7)	C (>70%)		100 to 1000 nM	
N#Cc1cc(Cl)cc2c1C[C@H](N1CCCNCC1)[C@H]2Oc1ccc(S(=O)(=O)N[C@@H]2CCN(CCOCCNC(=O)NCCCCNC(=O)NCCOCCN3CC[C@@H](NS(=O)(=O)c4ccc(O[C@H]5c6cc(Cl)cc(C#N)c6C[C@@H]5N5CCCNCC5)cc4)C3)C2)cc1 [Example 127, 4-([(1S,2S)-6-Chloro-4-cyano-2-(1,4-diazepan-1-yl)-2,3-dihydro-1H-inden-1-yl]oxy)-N—[(R)-1-(20-[(R)-3-([4-([(1S,2S)-6-chloro-4-cyano-2-(1,4-diazepan-1-yl)-2,3-dihydro-1H-inden-1-yl]oxy)phenyl]sulfonamido)pyrrolidin-1-yl]-7,14-dioxo-3,18-dioxa-6,8,13,15-tetraazaicosyl)pyrrolidin-3-yl]benzenesulfonamide; bis(trifluoroacetic acid)]	C (>70%)		A (NHE3 < 40%)		< 100 nM	< 100 nM

Results, then the compound that gave them:

% inhibition [1]	pIC50 ([1]; 0-30 μM test compound)	% inhibition [2]	pIC50 [2]	IC50 [2]	IC50 ([1]; 0-30 μM test compound)	Structure (SMILES)
C (>70%)	C (NHE3 pIC50 > 7)	C (>70%)	C (NHE3 pIC50 > 7)			CN(C)[C@H]1Cc2c(Cl)cc(Cl)cc2[C@@H]1Oc1ccc(S(=O)(=O)N[C@H]2CCN(CCOCCNC(=O)NCCCCNC(=O)NCCOCCN3CC[C@H](NS(=O)(=O)c4ccc(O[C@H]5c6cc(Cl)cc(Cl)c6C[C@@H]5N(C)C)c(F)c4)C3)C2)cc1F [Example 111, 4-([(1S,2S)-4,6-Dichloro-2-(dimethylamino)-2,3-dihydro-1H-inden-1-yl]oxy)-N—[(S)-1-(20-[(S)-3-([4-([(1S,2S)-4,6-dichloro-2-(dimethylamino)-2,3-dihydro-1H-inden-1-yl]oxy)-3-fluorophenyl]sulfonamido)pyrrolidin-1-yl]-7,14-dioxo-3,18-dioxa-6,8,13,15-tetraazaicosyl)pyrrolidin-3-yl)-3-fluorobenzenesulfonamide; tetra(trifluoroacetate)]
C (>70%)	C (NHE3 pIC50 > 7)	C (>70%)	C (NHE3 pIC50 > 7)			CN(C)[C@H]1Cc2c(Cl)cc(Cl)cc2[C@@H]1Oc1ccc(S(=O)(=O)N[C@@H]2CCN(CCOCCNC(=O)NCCCCNC(=O)NCCOCCN3CC[C@@H](NS(=O)(=O)c4ccc(O[C@H]5c6cc(Cl)cc(Cl)c6C[C@@H]5N(C)C)c(F)c4)C3)C2)cc1F [Example 112, 4-([(1S,2S)-4,6-Dichloro-2-(dimethylamino)-2,3-dihydro-1H-inden-1-yl]oxy)-N—[(R)-1-(20-[(R)-3-([4-([(1S,2S)-4,6-dichloro-2-(dimethylamino)-2,3-dihydro-1H-inden-1-yl]oxy)-3-fluorophenyl]sulfonamido)pyrrolidin-1 yl]-7,14-dioxo-3,18-dioxa-6,8,13,15-tetraazaicosyl)pyrrolidin-3-yl)-3-fluorobenzenesulfonamide; tetra(trifluoroacetate)]
C (>70%)	C (NHE3 pIC50 > 7)	C (>70%)	C (NHE3 pIC50 > 7)			Cc1cc(S(=O)(=O)N[C@@H]2CCN(CCOCCNC(=O)NCCCCNC(=O)NCCOCCN3CC[C@@H](NS(=O)(=O)c4ccc(O[C@H]5c6cc(Cl)cc(C)c6C[C@@H]5N5CCC[C@@H](N(C)C)C5)c(C)c4)C3)C2)ccc1O[C@H]1c2cc(Cl)cc(C)c2C[C@@H]1N1CCC[C@@H](N(C)C)C1 [Example 113, 4-([(1S,2S)-6-Chloro-2-[(R)-3-(dimethylamino)piperidin-1-yl]-4-methyl-2,3-dihydro-1H-inden-1-yl]oxy)-N—[(R)-1-(20-[(R)-3-([4-([(1S,2S)-6-chloro-2-[(R)-3-(dimethylamino)piperidin-1-yl]-4-methyl-2,3-dihydro-1H-inden-1-yl]oxy)-3-methylphenyl]sulfonamido)pyrrolidin-1-yl]-7,14-dioxo-3,18-dioxa-6,8,13,15-tetraazaicosyl)pyrrolidin-3-yl]-3-methylbenzenesulfonamide; tetra(trifluoroacetate)]
C (>70%)	C (NHE3 pIC50 > 7)	C (>70%)	C (NHE3 pIC50 > 7)			Cc1cc(S(=O)(=O)N[C@H]2CCN(CCOCCNC(=O)NCCCCNC(=O)NCCOCCN3CC[C@H](NS(=O)(=O)c4ccc(O[C@H]5c6cc(Cl)cc(C)c6C[C@@H]5N5CCC[C@@H](N(C)C)C5)c(C)c4)C3)C2)ccc1O[C@H]1c2cc(Cl)cc(C)c2C[C@@H]1N1CCC[C@@H](N(C)C)C1 [Example 114, 4-([(1S,2S)-6-Chloro-2-[(R)-3-(dimethylamino)piperidin-1-yl]-4-methyl-2,3-dihydro-1H-inden-1-yl]oxy)-N—[(S)-1-(20-[(S)-3-([4-([(1S,2S)-6-chloro-2-[(R)-3-(dimethylamino)piperidin-1-yl]-4-methyl-2,3-dihydro-1H-inden-1-yl]oxy)-3-methylphenyl]sulfonamido)pyrrolidin-1-yl]-7,14-dioxo-3,18-dioxa-6,8,13,15-tetraazaicosyl)pyrrolidin-3-yl]-3-methylbenzenesulfonamide; tetra(trifluoroacetate)]
